Tests used:
[1] = test system: thrombocytes; experiment: ADP-induced aggregation of thrombocytes in vitro (Born method, plasma enriched with thrombocytes); assay type: cell-based, rabbit; details: 3-minute incubation, ADP 10^−5 M
[2] = test system: thrombocytes; experiment: ADP-induced aggregation of thrombocytes after intravenous administration (in vivo); design: species or system rabbit
Procedure: The experiments were carried out on male rabbits of the “Chinchilla” breed having a mass of 2.7±0.3 kg. 18-24 hours prior to the experiment they were deprived of feed while preserving free access to water.
To obtain plasma enriched with thrombocytes, blood was taken from a cut of a marginal vein of the rabbit ear, the sample was stabilized with 3.8% of sodium citrate solution in a ratio of 9:1 and centrifuged at 200 g (1000 rev/min) for 10 minutes. The top supernatant layer enriched with thrombocytes was transferred by an automatic dropper into a silicone test tube and kept at 37° C. The plasma enriched with thrombocytes contained, on the average, […]. If this content exceeded the specified 3×10^8 blood platelets in 1 liter, this sample was diluted to the necessary concentration with plasma deprived of thrombocytes, which was obtained by centrifuging blood at 650 g during 10 minutes.
The measurements of the optical density of the samples were made on two-channel aggregometer of the “Chronolog” Company (USA). A flask containing 490 mkl of plasma rich with thrombocytes was placed in a device, into which a magnetic agitator covered with Teflon was lowered. The index of maximum amplitude of aggregation (MA) in percent of a fall of the plasma optical density under effect of the aggregation inductor was recorded. The control index MA of plasma was compared with the MA of plasma incubated for 3 minutes with different concentrations of the compounds: from 10^−3 to 10^−7 in vitro experiments or with plasma obtained 15, 30, 60 and 120 minutes after intravenous administration of different doses of the compounds in vivo experiments.
The process of aggregation of thrombocytes was recorded with the help of a computer; on the monitor screen the there were depicted curves reflecting changes of the optical density of the plasma enriched which was taken as a standard 100% compared to the optical density of the non-thrombocyte plasma taken for 0% content of thrombocytes.
The antiaggregative capability of compounds 2, 15, 21, 37, according to the invention was tested in experiments in vivo. Introduced to the test animals intravenously were an aggregation inductor ADP at a concentration of 10^−5 M was and then the compounds according to the invention. The doses of the compounds were in a range from 15 to 60 mg/kg.
For leveling the different effects of the compounds in different days due the ambient temperature, humidity and other parameters, 2 animals of each series were taken for experiments every day. Under “series” there is understood a group of 6 animals used for studying one of the doses of the compounds.
The blood for obtaining plasma enriched with thrombocytes was taken from marginal vein of the rabbit ear: in the control group—directly before introducing the tested compounds; in investigated groups—15 minutes after introducing these compounds and then after 30, 60, 120 minutes and so on up to the moment when the effect of suppression of aggregation disappeared.
The quantity of thrombocytes was counted before the experiment and at the end thereof in each plasma sample.

[3] = Chronic toxicity of suppositories: indexes of peripheral blood; assay type: in vivo, rats; design: Thrombocytes: unit not given here; details: male rats, suppositories rectally; for Basophiles / Juveniles: 1 month/2 months (one value given), control 0

O=c1[nH][nH]c(=O)c2c(Br)ncnc12.[K] [Compound 37, potassium salt of 4-bromine-pyrimido[4,5-D]-6H-pyridazine-5,8-dione]
MA - fall of optical density of plasma, % to the standard ([1]; 10^−3 M, control 60.8 ± 3.4): 46.9 ± 2.7 %
MA - fall of optical density of plasma, % to the standard ([1]; 10^−4 M, control 60.0 ± 2.1): 47.1 ± 2.0 %
MA - fall of optical density of plasma, % to the standard ([1]; 10^−5 M, control 52.5 ± 2.1): 40.6 ± 1.7 %
MA - drop of optical density, % ([1]; 10^−6 M, control 52.8 ± 1.8): 48.1 ± 2.9%
MA - drop of optical density, % ([1]; 10^−7 M, control 51.5 ± 2.1): 50.1 ± 1.0%
MA - drop of optical density ([2]; 15.0 mg/kg intravenously, after 15 minutes, control 50.1 ± 1.7): 42.9 ± 1.6 %
MA - drop of optical density ([2]; 15.0 mg/kg intravenously, after 30 minutes, control 50.1 ± 1.7): 41.9 ± 1.6 %
MA - drop of optical density ([2]; 15.0 mg/kg intravenously, after 60 minutes, control 50.1 ± 1.7): 45.9 ± 1.6%
MA - drop of optical density ([2]; 15.0 mg/kg intravenously, after 120 minutes, control 50.1 ± 1.7): 48.7 ± 2.1%
MA - drop of optical density ([2]; 30.0 mg/kg intravenously, after 15 minutes, control 61.0 ± 1.3): 43.5 ± 2.0 %
MA - drop of optical density ([2]; 30.0 mg/kg intravenously, after 30 minutes, control 61.0 ± 1.3): 42.0 ± 1.4 %
MA - drop of optical density ([2]; 30.0 mg/kg intravenously, after 60 minutes, control 61.0 ± 1.3): 41.6 ± 1.4 %
MA - drop of optical density ([2]; 30.0 mg/kg intravenously, after 120 minutes, control 61.0 ± 1.3): 58.4 ± 1.7%
MA - drop of optical density ([2]; 60.0 mg/kg intravenously, after 15 minutes, control 48.6 ± 1.3): 43.4 ± 1.8 %
MA - drop of optical density ([2]; 60.0 mg/kg intravenously, after 30 minutes, control 48.6 ± 1.3): 42.4 ± 0.7 %
MA - drop of optical density ([2]; 60.0 mg/kg intravenously, after 60 minutes, control 48.6 ± 1.3): 46.2 ± 2.0%
MA - drop of optical density ([2]; 60.0 mg/kg intravenously, after 120 minutes, control 48.6 ± 1.3): 47.3 ± 1.7%
Basophiles ([3]; 50 mg/kg): 0%
Juveniles ([3]; 50 mg/kg): 0%
Stab neutrophil ([3]; 50 mg/kg, 1 month, control 0.8 ± 0.4): 1.3 ± 0.5%
REE ([3]; 50 mg/kg, 1 month, control 2.2 ± 0.4): 1.8 ± 0.3 mm/h
Reticulocytes ([3]; 50 mg/kg, 1 month, control 2.8%0.3): 2.6 ± 0.1%
Eosinophiles ([3]; 50 mg/kg, 1 month, control 4.0 + 0.3): 3.8 ± 0.8%
Erythrocytes ([3]; 50 mg/kg, 1 month, control 5.6 ± 0.1): 5.6 ± 0.2 mln/mm^3
Hemoglobin ([3]; 50 mg/kg, 1 month, control 10.5 ± 0.2): 10.5 ± 0.1 mmol/L
Leukocyte ([3]; 50 mg/kg, 1 month, control 17.4 ± 1.3): 14.9 ± 1.5 thousand/mm^3
Haematocrite ([3]; 50 mg/kg, 1 month, control 45.9 ± 1.7): 47.8 ± 1.4%
Average volume of erythrocytes ([3]; 50 mg/kg, 1 month, control 81.4 ± 1.7): 83.9 ± 1.7 Mkm^3
Coagulation, time ([3]; 50 mg/kg, 1 month, control 152 ± 10.2): 151 ± 13 s
Thrombocytes ([3]; 50 mg/kg, 1 month, control 707 ± 23): 675 ± 22
REE ([3]; 50 mg/kg, 2 months, control 1.4 ± 0.2): 1.6 ± 0.3 mm/h
Stab neutrophil ([3]; 50 mg/kg, 2 months, control 2.4 ± 0.4): 1.9 ± 0.4%
Reticulocytes ([3]; 50 mg/kg, 2 months, control 2.9 ± 0.2): 3.1 ± 0.1%
Eosinophiles ([3]; 50 mg/kg, 2 months, control 4.4 + 1.2): 4.2 ± 0.3%
Erythrocytes ([3]; 50 mg/kg, 2 months, control 6.1 ± 0.1): 6.2 ± 0.1 mln/mm^3
Hemoglobin ([3]; 50 mg/kg, 2 months, control 11.4 ± 0.2): 11.0 ± 0.1 mmol/L
Leukocyte ([3]; 50 mg/kg, 2 months, control 19.1 ± 1.9): 16.7 ± 1.2 thousand/mm^3
Haematocrite ([3]; 50 mg/kg, 2 months, control 45.9 ± 1.8): 47.5 ± 1.2%
Average volume of erythrocytes ([3]; 50 mg/kg, 2 months, control 74.6 + 1.9): 78.5 ± 1.4 Mkm^3
Coagulation, time ([3]; 50 mg/kg, 2 months, control 316 ± 8): 319 ± 12 s
Thrombocytes ([3]; 50 mg/kg, 2 months, control 593 ± 14): 609 ± 18
Basophiles ([3]; 500 mg/kg): 0%
Juveniles ([3]; 500 mg/kg): 0%
Stab neutrophil ([3]; 500 mg/kg, 1 month, control 0.8 ± 0.4): 0.9 ± 0.4%
REE ([3]; 500 mg/kg, 1 month, control 2.2 ± 0.4): 2.2 ± 0.3 mm/h
Reticulocytes ([3]; 500 mg/kg, 1 month, control 2.8%0.3): 3.0 ± 0.2%
Eosinophiles ([3]; 500 mg/kg, 1 month, control 4.0 + 0.3): 3.5 ± 1.0%
Erythrocytes ([3]; 500 mg/kg, 1 month, control 5.6 ± 0.1): 5.7 ± 0.1 mln/mm^3
Hemoglobin ([3]; 500 mg/kg, 1 month, control 10.5 ± 0.2): 10.6 ± 0.1 mmol/L
Leukocyte ([3]; 500 mg/kg, 1 month, control 17.4 ± 1.3): 17.1 ± 0.9 thousand/mm^3
Haematocrite ([3]; 500 mg/kg, 1 month, control 45.9 ± 1.7): 47.9 ± 1.8%
Average volume of erythrocytes ([3]; 500 mg/kg, 1 month, control 81.4 ± 1.7): 82.3 ± 1.5 Mkm^3
Coagulation, time ([3]; 500 mg/kg, 1 month, control 152 ± 10.2): 157 ± 14 s
REE ([3]; 500 mg/kg, 2 months, control 1.4 ± 0.2): 2.0 ± 0.1 mm/h
Stab neutrophil ([3]; 500 mg/kg, 2 months, control 2.4 ± 0.4): 1.1 ± 0.6%
Reticulocytes ([3]; 500 mg/kg, 2 months, control 2.9 ± 0.2): 3.4 ± 0.2%
Eosinophiles ([3]; 500 mg/kg, 2 months, control 4.4 + 1.2): 4.1 ± 1.3%
Erythrocytes ([3]; 500 mg/kg, 2 months, control 6.1 ± 0.1): 6.5 ± 0.2 mln/mm^3
Hemoglobin ([3]; 500 mg/kg, 2 months, control 11.4 ± 0.2): 12.1 ± 0.4 mmol/L
Leukocyte ([3]; 500 mg/kg, 2 months, control 19.1 ± 1.9): 18.7 ± 1.7 thousand/mm^3
Haematocrite ([3]; 500 mg/kg, 2 months, control 45.9 ± 1.8): 52.5 ± 1.7%
Average volume of erythrocytes ([3]; 500 mg/kg, 2 months, control 74.6 + 1.9): 80.1 ± 1.0 Mkm^3
Thrombocytes ([3]; 500 mg/kg, 2 months, control 593 ± 14): 639 ± 34

Reference: patent US8592421B2, “Cyclic bioisosters of purine system derivatives and a pharmaceutical composition based thereon” (priority 2003, dated 2013)
